Patent US11214803B2, “Modulators of YAP1 expression” (Ionis Pharmaceuticals, Inc., priority 2019, dated 2022)
Strand notation (5' to 3'): a small letter for the sugar, then the base; units joined by * are phosphorothioate-linked, units joined directly phosphodiester-linked; [ ] holds rarer units or linkages, { } end groups; capitals alone tell only the bases. k = constrained ethyl (cEt); [5mC] = 5-methylcytosine; d = 2'-deoxy (DNA)

Each substance was assayed on Yap1 mRNA (assay: Antisense inhibition of human Yap1 in A-431 cells by cEt gapmers, single dose (Example 3, RTS36584)). Details: Table 8; A-431 cells, 5,000 cells per well, free uptake, 2,000 nM, approximately 48 hours; RTS36584; normalized to RIBOGREEN; Yap1 mRNA relative to untreated control cells.
Assay type: cell-based
Method: Modified oligonucleotides were designed to target a Yap1 nucleic acid and were tested for their effect on Yap1 mRNA level in vitro. The modified oligonucleotides were tested in a series of experiments that had similar culture conditions. Cultured A-431 cells at a density of 5,000 cells per well were treated using free uptake with 2,000 nM of modified oligonucleotide. After a treatment period of approximately 48 hours, RNA was isolated from the cells and Yap1 mRNA levels were measured by quantitative real-time RTPCR. Human primer probe set RTS36584 (forward sequence […], designated herein as SEQ ID NO.: 14; reverse sequence […], designated herein as SEQ ID NO.: 15; probe sequence […], designated herein as SEQ ID NO.: 16) was used to measure mRNA levels. Yap1 mRNA levels were normalized to total RNA content, as measured by RIBOGREEN®. Results are presented in the tables below as percent control of the amount of Yap1 mRNA relative to untreated control cells (% UTC). The modified oligonucleotides with percent control values marked with an asterisk (*) target the amplicon region of the primer probe set. Additional assays may be used to measure the potency and efficacy of the modified oligonucleotides targeting the amplicon region.
The newly designed modified oligonucleotides in the Tables below were designed as 3-10-3 cEt gapmers. The gapmers are 16 nucleosides in length, wherein the central gap segment comprises of ten 2′-deoxynucleosides and is flanked by wing segments on the 5′ direction and the 3′ direction comprising three nucleosides each. Each nucleoside in the 5′ wing segment and each nucleoside in the 3′ wing segment has a cEt sugar modification. The internucleoside linkages throughout each gapmer are phosphorothioate (P═S) linkages. All cytosine residues throughout each gapmer are 5-methylcytosines.
“Start site” indicates the 5′-most nucleoside to which the gapmer is targeted in the human gene sequence. “Stop site” indicates the 3′-most nucleoside to which the gapmer is targeted human gene sequence. […] Activity of the modified oligonucleotide may be defined in a different experiment.
With “958379 (antisense kG*k[5mC]*kG*d[5mC]*d[5mC]*d[5mC]*dG*d[5mC]*d[5mC]*d[5mC]*dG*d[5mC]*dA*k[5mC]*k[5mC]*kG) [Compound 958379]” the “YAP1 (% UTC)” value was 124 % UTC.
“958402 (antisense k[5mC]*kT*k[5mC]*dT*dT*dA*d[5mC]*dA*d[5mC]*dA*dG*d[5mC]*d[5mC]*kT*kA*kG) [Compound 958402]” was tested, and the “YAP1 (% UTC)” value was 28 % UTC.
In the case of “958421 (antisense k[5mC]*kT*k[5mC]*d[5mC]*dG*dT*dG*dG*dT*dG*dA*dT*d[5mC]*k[5mC]*k[5mC]*kA) [Compound 958421]”, the “YAP1 (% UTC)” value is reported as 13 % UTC.

Same assay, conditions: Table 9; A-431 cells, 5,000 cells per well, free uptake, 2,000 nM, approximately 48 hours; RTS36584; normalized to RIBOGREEN; Yap1 mRNA relative to untreated control cells
With “958696 (antisense kG*k[5mC]*kA*dT*dA*d[5mC]*dT*dA*d[5mC]*dA*d[5mC]*dT*dA*kT*kA*kA) [Compound 958696]” the “YAP1 (% UTC)” value was 56 % UTC.
For “958786 (antisense kT*kA*kT*dG*dT*d[5mC]*d[5mC]*dT*dA*d[5mC]*dT*dT*dT*k[5mC]*k[5mC]*k[5mC]) [Compound 958786]”, the “YAP1 (% UTC)” value was 10 % UTC.

Same assay, conditions: Table 10; A-431 cells, 5,000 cells per well, free uptake, 2,000 nM oligonucleotide, approx. 48 hours; primer probe set RTS36584; Yap1 mRNA normalized to RIBOGREEN, percent of untreated control
With “958782 (antisense kA*kT*kG*dG*dT*d[5mC]*dT*d[5mC]*d[5mC]*d[5mC]*dA*dG*dT*k[5mC]*kA*k[5mC]) [Compound 958782]” the “YAP1 (% UTC)” value was 20 % UTC.
With “958617 (antisense kG*kA*kG*dG*dT*dG*dG*dT*d[5mC]*dT*dT*dG*dT*kT*k[5mC]*kT) [Compound 958617]” the “YAP1 (% UTC)” value was 40 % UTC.
“958652 (kG*k[5mC]*kT*dA*d[5mC]*dG*dA*d[5mC]*dG*dG*d[5mC]*dT*dG*kG*k[5mC]*k[5mC]; antisense) [Compound 958652]” was tested, and the “YAP1 (% UTC)” value was 136 % UTC.

Same assay, conditions: Table 11; A-431 cells, 5,000 cells per well, free uptake, 2,000 nM oligonucleotide, approx. 48 hours; primer probe set RTS36584; Yap1 mRNA normalized to RIBOGREEN, percent of untreated control
With “958603 (kT*kG*kG*dT*dA*dT*dG*dA*dA*dT*dT*d[5mC]*dT*kG*kA*kA; antisense) [Compound 958603]” the “YAP1 (% UTC)” value was 3 % UTC.
In the case of “958508 (kG*kA*kG*dA*dG*d[5mC]*dA*dG*dA*dT*dA*dA*dT*k[5mC]*kG*kA; antisense) [Compound 958508]”, the “YAP1 (% UTC)” value is reported as 7 % UTC.
In the case of “958638 (antisense kG*kT*kG*d[5mC]*dG*dG*dA*dG*d[5mC]*dG*d[5mC]*dG*d[5mC]*kG*kG*kA) [Compound 958638]”, the “YAP1 (% UTC)” value is reported as 127 % UTC.
In the case of “958598 (k[5mC]*k[5mC]*k[5mC]*dA*dA*dT*dG*d[5mC]*dT*dA*d[5mC]*d[5mC]*d[5mC]*kA*kA*kT; antisense) [Compound 958598]”, the “YAP1 (% UTC)” value is reported as 4 % UTC.
“958748 (antisense kA*k[5mC]*kA*dT*dG*dT*dG*dA*d[5mC]*dA*dT*dT*d[5mC]*k[5mC]*kG*kG) [Compound 958748]” was tested, and the “YAP1 (% UTC)” value was 83 % UTC.

Same assay, conditions: Table 12; A-431 cells, 5,000 cells per well, free uptake, 2,000 nM modified oligonucleotide, approx. 48 hours; RTS36584; normalized to RIBOGREEN; Yap1 mRNA relative to untreated control cells
“958614 (antisense kG*kT*k[5mC]*dT*dT*dG*dT*dT*d[5mC]*dT*dT*dA*dT*kG*kG*kT) [Compound 958614]” was tested, and the “YAP1 (% UTC)” value was 6 % UTC.
For “958819 (kT*kG*k[5mC]*dT*dT*d[5mC]*dA*dA*d[5mC]*dA*dT*dT*dG*kT*kT*k[5mC]; antisense) [Compound 958819]”, the “YAP1 (% UTC)” value was 9 % UTC.
With “958804 (antisense kA*kG*kA*dT*dA*dA*dT*d[5mC]*dA*dT*d[5mC]*d[5mC]*dT*k[5mC]*kA*kG) [Compound 958804]” the “YAP1 (% UTC)” value was 17 % UTC.
In the case of “958474 (antisense kG*kT*kG*dT*d[5mC]*dT*d[5mC]*d[5mC]*dT*dT*dA*dG*dA*kT*k[5mC]*k[5mC]) [Compound 958474]”, the “YAP1 (% UTC)” value is reported as 3 % UTC.
In the case of “958714 (antisense kG*kA*kG*d[5mC]*dA*d[5mC]*dT*dG*d[5mC]*dG*d[5mC]*d[5mC]*d[5mC]*kT*kG*kG) [Compound 958714]”, the “YAP1 (% UTC)” value is reported as 82 % UTC.
For “958659 (kG*kT*kT*dG*dT*dA*dT*dT*dA*d[5mC]*dT*d[5mC]*dT*k[5mC]*k[5mC]*kA; antisense) [Compound 958659]”, the “YAP1 (% UTC)” value was 2 % UTC.
For “958674 (kA*kA*kG*dA*dA*d[5mC]*dT*dT*dA*dG*dT*dT*d[5mC]*k[5mC]*k[5mC]*kT; antisense) [Compound 958674]”, the “YAP1 (% UTC)” value was 25 % UTC.

Same assay, conditions: Table 13; A-431 cells, 5,000 cells per well, free uptake, 2,000 nM modified oligonucleotide, approx. 48 hours; RTS36584; normalized to RIBOGREEN; Yap1 mRNA relative to untreated control cells
With “958510 (kT*kA*k[5mC]*d[5mC]*dA*d[5mC]*dA*d[5mC]*dT*dA*dT*dT*dA*kT*kA*kA; antisense) [Compound 958510]” the “YAP1 (% UTC)” value was 43 % UTC.
“958545 (kA*k[5mC]*kT*d[5mC]*dT*dA*dG*dT*dT*dA*d[5mC]*dA*dT*k[5mC]*kA*kT; antisense) [Compound 958545]” was tested, and the “YAP1 (% UTC)” value was 3 % UTC.
“958495 (kG*kG*kT*d[5mC]*dA*dT*dT*dA*dT*dG*dT*dG*dA*k[5mC]*kT*kA; antisense) [Compound 958495]” was tested, and the “YAP1 (% UTC)” value was 56 % UTC.

Same assay, conditions: Table 26; Yap1 mRNA by 3-10-3 cEt gapmers targeting SEQ ID NO.: 1, and 2; percent of untreated control
In the case of “1074348 (antisense kG*kT*kA*d[5mC]*dT*d[5mC]*dT*d[5mC]*dA*dT*d[5mC]*dT*d[5mC]*kG*kA*kG) [compound 1074348]”, the “YAP1 (% UTC)” value is reported as 100 % UTC.
With “1076332 (antisense kT*kA*kT*dA*dA*dG*dG*dA*dA*dT*dG*dG*d[5mC]*kA*kA*k[5mC]) [compound 1076332]” the “YAP1 (% UTC)” value was 107 % UTC.

Same assay, conditions: Table 27; Yap1 mRNA by 3-10-3 cEt gapmers targeting SEQ ID NO.: 1, and 2; percent of untreated control
“1074157 (kA*kG*k[5mC]*dG*dA*dG*dG*dG*d[5mC]*dT*dA*d[5mC]*dG*k[5mC]*k[5mC]*k[5mC]; antisense) [compound 1074157]” was tested, and the “YAP1 (% UTC)” value was 103 % UTC.
In the case of “1074925 (antisense kG*k[5mC]*k[5mC]*dT*dG*d[5mC]*dA*dA*dA*dT*dA*dG*dG*kA*kG*kA) [compound 1074925]”, the “YAP1 (% UTC)” value is reported as 94 % UTC.
“1074861 (kT*kG*k[5mC]*dT*d[5mC]*dT*dT*dA*d[5mC]*dA*dT*d[5mC]*dT*kA*kA*kA; antisense) [compound 1074861]” was tested, and the “YAP1 (% UTC)” value was 23 % UTC.
For “1076557 (kA*kA*k[5mC]*dA*dA*dA*dT*dA*d[5mC]*d[5mC]*dA*dG*dG*kT*kT*k[5mC]; antisense) [compound 1076557]”, the “YAP1 (% UTC)” value was 111 % UTC.
For “1075661 (antisense kG*kA*kA*dT*dA*dG*dG*dA*dT*dA*d[5mC]*dA*dA*kG*k[5mC]*kA) [compound 1075661]”, the “YAP1 (% UTC)” value was 74 % UTC.
“1075245 (k[5mC]*k[5mC]*kT*dA*dA*dT*dA*dT*dG*d[5mC]*dT*dA*dT*kT*kG*kT; antisense) [compound 1075245]” was tested, and the “YAP1 (% UTC)” value was 34 % UTC.

Same assay, conditions: Table 28; Yap1 mRNA as percent of untreated control; 3-10-3 cEt gapmers targeting SEQ ID NO.: 1, and 2
With “1075726 (kA*kG*kT*dT*dA*dT*d[5mC]*d[5mC]*dT*dA*dT*d[5mC]*dT*kG*kT*k[5mC]; antisense) [compound 1075726]” the “YAP1 (% UTC)” value was 14 % UTC.

Same assay, conditions: Table 29; Yap1 mRNA as percent of untreated control; 3-10-3 cEt gapmers targeting SEQ ID NO.: 1, and 2
In the case of “1075023 (antisense kG*kT*kA*dT*dT*dT*dA*d[5mC]*dA*dA*d[5mC]*d[5mC]*dT*kA*kG*kA) [compound 1075023]”, the “YAP1 (% UTC)” value is reported as 18 % UTC.
“1074319 (antisense kG*k[5mC]*kT*dA*dA*d[5mC]*dT*d[5mC]*d[5mC]*dT*dG*dA*d[5mC]*kA*kT*kT) [compound 1074319]” was tested, and the “YAP1 (% UTC)” value was 47 % UTC.
With “1076431 (k[5mC]*kA*k[5mC]*d[5mC]*dA*dA*dT*dA*dG*dA*dA*d[5mC]*dA*kT*kA*kT; antisense) [compound 1076431]” the “YAP1 (% UTC)” value was 31 % UTC.
For “1075343 (antisense kA*kA*k[5mC]*dT*dA*dA*dA*dA*dG*dG*dG*dA*dG*kT*kA*kG) [compound 1075343]”, the “YAP1 (% UTC)” value was 89 % UTC.

Same assay, conditions: Table 34; Yap1 mRNA as percent of untreated control; 3-10-3 cEt gapmers targeting SEQ ID NO: 1 and 2; single dose
In the case of “1075220 (kA*kA*kT*dT*dT*dT*dA*dA*d[5mC]*dT*dG*dT*dG*kA*k[5mC]*k[5mC]; antisense) [compound 1075220]”, the “YAP1 (% UTC)” value is reported as 24 % UTC.

Same assay, conditions: Table 35; Yap1 mRNA as percent of untreated control; 3-10-3 cEt gapmers targeting SEQ ID NO: 1 and 2; single dose
With “1074709 (antisense kT*k[5mC]*kT*dA*dG*dA*dA*d[5mC]*dA*dG*d[5mC]*dT*dG*k[5mC]*k[5mC]*kT) [compound 1074709]” the “YAP1 (% UTC)” value was 71 % UTC.
In the case of “1074165 (k[5mC]*k[5mC]*k[5mC]*dA*dG*dG*d[5mC]*dG*dA*dG*d[5mC]*dG*dA*kG*kG*kG; antisense) [compound 1074165]”, the “YAP1 (% UTC)” value is reported as 90 % UTC.
In the case of “1075637 (antisense k[5mC]*k[5mC]*kA*d[5mC]*dA*dA*d[5mC]*d[5mC]*dT*dG*dT*d[5mC]*dA*kA*kT*kA) [compound 1075637]”, the “YAP1 (% UTC)” value is reported as 100 % UTC.
